{"source": "PubChem BioAssay AID2060900", "about": "(Molecular Pharmacology Branch, DTP, NCI, 2025)", "test_system": "521955-158-R2-J5-PDC complex spheroids, viability", "assay": "Anticancer human tumor 521955-158-R2-J5-PDC patient-derived pancreatic carcinoma cell line growth inhibition [RAS]", "details": "for IC50: curve of first compound; for viability, T/C: stronger effect = lower value", "how_it_was_run": "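Agents were tested in combination matrices in half-log decrements from a top concentration at or near clinical Cmax (10 microM if undetermined). Targets were multi-cell spheroids of tumour lines plus HUVEC and MSC stromal cells.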", "data": [{"compound": "CCc1c2c(nc3ccc(O)cc13)-c1cc3c(c(=O)n1C2)COC(=O)[C@]3(O)CC", "note": "+ C#Cc1c(F)ccc2cc(O)cc(-c3ncc4c(N5CC6CCC(C5)N6)nc(OCC56CCCN5CC(F)C6)nc4c3F)c12;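 further: compound exposure lasted seven days before the viability read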;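 on viability, T/C: spheroids also contain HUVEC endothelial cells and mesenchymal stem cells as stroma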", "values": [{"measurement": "IC50", "setting": "second compound 0.0316 µM", "value": 2.36, "unit": "nM"}, {"measurement": "IC50", "setting": "second compound 0.1 µM", "value": "< 0.949", "unit": "nM"}, {"measurement": "IC50", "setting": "second compound 0.316 µM", "value": 1.13, "unit": "nM"}, {"measurement": "IC50", "setting": "second compound 1 µM", "value": "< 0.949", "unit": "nM"}, {"measurement": "IC50", "setting": "second compound 3.16 µM", "value": "< 0.949", "unit": "nM"}, {"measurement": "IC50", "setting": "second compound 10 µM", "value": "< 0.949", "unit": "nM"}, {"measurement": "viability, T/C", "setting": "second compound 0.0316 µM, first compound 0.000949 µM", "value": 68.1, "unit": "%"}, {"measurement": "viability, T/C", "setting": "second compound 0.0316 µM, first compound 0.003 µM", "value": 40.9, "unit": "%"}, {"measurement": "viability, T/C", "setting": "second compound 0.0316 µM, first compound 0.00949 µM", "value": 35.7, "unit": "%"}, {"measurement": "viability, T/C", "setting": "second compound 0.0316 µM, first compound 0.03 µM", "value": 20.7, "unit": "%"}, {"measurement": "viability, T/C", "setting": "second compound 0.0316 µM, first compound 0.0949 µM", "value": 15.3, "unit": "%"}, {"measurement": "viability, T/C", "setting": "second compound 0.0316 µM, first compound 0.3 µM", "value": 9.62, "unit": "%"}, {"measurement": "viability, T/C", "setting": "second compound 0.1 µM, first compound 0.000949 µM", "value": 43.4, "unit": "%"}, {"measurement": "viability, T/C", "setting": "second compound 0.1 µM, first compound 0.003 µM", "value": 34.2, "unit": "%"}, {"measurement": "viability, T/C", "setting": "second compound 0.1 µM, first compound 0.00949 µM", "value": 26.9, "unit": "%"}, {"measurement": "viability, T/C", "setting": "second compound 0.1 µM, first compound 0.03 µM", "value": 22.5, "unit": "%"}, {"measurement": "viability, T/C", "setting": "second compound 0.1 µM, first compound 0.0949 µM", "value": 11.4, "unit": "%"}, {"measurement": "viability, T/C", "setting": "second compound 0.1 µM, first compound 0.3 µM", "value": 12.5, "unit": "%"}, {"measurement": "viability, T/C", "setting": "second compound 0.316 µM, first compound 0.000949 µM", "value": 51.9, "unit": "%"}, {"measurement": "viability, T/C", "setting": "second compound 0.316 µM, first compound 0.003 µM", "value": 39.5, "unit": "%"}, {"measurement": "viability, T/C", "setting": "second compound 0.316 µM, first compound 0.00949 µM", "value": 23.8, "unit": "%"}, {"measurement": "viability, T/C", "setting": "second compound 0.316 µM, first compound 0.03 µM", "value": 18.3, "unit": "%"}, {"measurement": "viability, T/C", "setting": "second compound 0.316 µM, first compound 0.0949 µM", "value": 14.3, "unit": "%"}, {"measurement": "viability, T/C", "setting": "second compound 0.316 µM, first compound 0.3 µM", "value": 8.89, "unit": "%"}, {"measurement": "viability, T/C", "setting": "second compound 1 µM, first compound 0.000949 µM", "value": 41.1, "unit": "%"}, {"measurement": "viability, T/C", "setting": "second compound 1 µM, first compound 0.003 µM", "value": 36.1, "unit": "%"}, {"measurement": "viability, T/C", "setting": "second compound 1 µM, first compound 0.00949 µM", "value": 18.4, "unit": "%"}, {"measurement": "viability, T/C", "setting": "second compound 1 µM, first compound 0.03 µM", "value": 16.6, "unit": "%"}, {"measurement": "viability, T/C", "setting": "second compound 1 µM, first compound 0.0949 µM", "value": 11.3, "unit": "%"}, {"measurement": "viability, T/C", "setting": "second compound 1 µM, first compound 0.3 µM", "value": 10.6, "unit": "%"}, {"measurement": "viability, T/C", "setting": "second compound 3.16 µM, first compound 0.000949 µM", "value": 41.4, "unit": "%"}, {"measurement": "viability, T/C", "setting": "second compound 3.16 µM, first compound 0.003 µM", "value": 34.6, "unit": "%"}, {"measurement": "viability, T/C", "setting": "second compound 3.16 µM, first compound 0.00949 µM", "value": 24.7, "unit": "%"}, {"measurement": "viability, T/C", "setting": "second compound 3.16 µM, first compound 0.03 µM", "value": 15.8, "unit": "%"}, {"measurement": "viability, T/C", "setting": "second compound 3.16 µM, first compound 0.0949 µM", "value": 12.8, "unit": "%"}, {"measurement": "viability, T/C", "setting": "second compound 3.16 µM, first compound 0.3 µM", "value": 5.72, "unit": "%"}, {"measurement": "viability, T/C", "setting": "second compound 10 µM, first compound 0.000949 µM", "value": 30, "unit": "%"}, {"measurement": "viability, T/C", "setting": "second compound 10 µM, first compound 0.003 µM", "value": 23, "unit": "%"}, {"measurement": "viability, T/C", "setting": "second compound 10 µM, first compound 0.00949 µM", "value": 16.8, "unit": "%"}, {"measurement": "viability, T/C", "setting": "second compound 10 µM, first compound 0.03 µM", "value": 15.5, "unit": "%"}, {"measurement": "viability, T/C", "setting": "second compound 10 µM, first compound 0.0949 µM", "value": 11.2, "unit": "%"}, {"measurement": "viability, T/C", "setting": "second compound 10 µM, first compound 0.3 µM", "value": 11.8, "unit": "%"}]}, {"compound": "C=CC(=O)Nc1cc(Nc2nccc(-c3cn(C)c4ccccc34)n2)c(OC)cc1N(C)CCN(C)C", "note": "+ C=CC(=O)N1CCN(c2nc(OCC3CCCN3C)nc3c(F)c(-c4nc(N)cc(C)c4C(F)(F)F)c(Cl)cc23)C(C)C1", "values": [{"measurement": "IC50", "setting": "second compound 0.00316 µM", "value": 970, "unit": "nM"}, {"measurement": "IC50", "setting": "second compound 0.01 µM", "value": 898, "unit": "nM"}, {"measurement": "IC50", "setting": "second compound 0.0316 µM", "value": "> 1000", "unit": "nM"}, {"measurement": "IC50", "setting": "second compound 0.1 µM", "value": 757, "unit": "nM"}, {"measurement": "IC50", "setting": "second compound 0.316 µM", "value": 636, "unit": "nM"}, {"measurement": "IC50", "setting": "second compound 1 µM", "value": 757, "unit": "nM"}, {"measurement": "viability, T/C", "setting": "second compound 0.00316 µM, first compound 0.00316 µM", "value": 106, "unit": "%"}, {"measurement": "viability, T/C", "setting": "second compound 0.00316 µM, first compound 0.01 µM", "value": 78.6, "unit": "%"}, {"measurement": "viability, T/C", "setting": "second compound 0.00316 µM, first compound 0.0316 µM", "value": 90.5, "unit": "%"}, {"measurement": "viability, T/C", "setting": "second compound 0.00316 µM, first compound 0.1 µM", "value": 81.2, "unit": "%"}, {"measurement": "viability, T/C", "setting": "second compound 0.00316 µM, first compound 0.316 µM", "value": 86.4, "unit": "%"}, {"measurement": "viability, T/C", "setting": "second compound 0.00316 µM, first compound 1 µM", "value": 48.9, "unit": "%"}, {"measurement": "viability, T/C", "setting": "second compound 0.01 µM, first compound 0.00316 µM", "value": 87.8, "unit": "%"}, {"measurement": "viability, T/C", "setting": "second compound 0.01 µM, first compound 0.01 µM", "value": 63.4, "unit": "%"}, {"measurement": "viability, T/C", "setting": "second compound 0.01 µM, first compound 0.0316 µM", "value": 77.8, "unit": "%"}, {"measurement": "viability, T/C", "setting": "second compound 0.01 µM, first compound 0.1 µM", "value": 108, "unit": "%"}, {"measurement": "viability, T/C", "setting": "second compound 0.01 µM, first compound 0.316 µM", "value": 74.1, "unit": "%"}, {"measurement": "viability, T/C", "setting": "second compound 0.01 µM, first compound 1 µM", "value": 47.5, "unit": "%"}, {"measurement": "viability, T/C", "setting": "second compound 0.0316 µM, first compound 0.00316 µM", "value": 80.1, "unit": "%"}, {"measurement": "viability, T/C", "setting": "second compound 0.0316 µM, first compound 0.01 µM", "value": 63.5, "unit": "%"}, {"measurement": "viability, T/C", "setting": "second compound 0.0316 µM, first compound 0.0316 µM", "value": 96.5, "unit": "%"}, {"measurement": "viability, T/C", "setting": "second compound 0.0316 µM, first compound 0.1 µM", "value": 107, "unit": "%"}, {"measurement": "viability, T/C", "setting": "second compound 0.0316 µM, first compound 0.316 µM", "value": 68.1, "unit": "%"}, {"measurement": "viability, T/C", "setting": "second compound 0.0316 µM, first compound 1 µM", "value": 50.4, "unit": "%"}, {"measurement": "viability, T/C", "setting": "second compound 0.1 µM, first compound 0.00316 µM", "value": 68.1, "unit": "%"}, {"measurement": "viability, T/C", "setting": "second compound 0.1 µM, first compound 0.01 µM", "value": 81.4, "unit": "%"}, {"measurement": "viability, T/C", "setting": "second compound 0.1 µM, first compound 0.0316 µM", "value": 74.8, "unit": "%"}, {"measurement": "viability, T/C", "setting": "second compound 0.1 µM, first compound 0.1 µM", "value": 85.3, "unit": "%"}, {"measurement": "viability, T/C", "setting": "second compound 0.1 µM, first compound 0.316 µM", "value": 73.6, "unit": "%"}, {"measurement": "viability, T/C", "setting": "second compound 0.1 µM, first compound 1 µM", "value": 42.2, "unit": "%"}, {"measurement": "viability, T/C", "setting": "second compound 0.316 µM, first compound 0.00316 µM", "value": 121, "unit": "%"}, {"measurement": "viability, T/C", "setting": "second compound 0.316 µM, first compound 0.01 µM", "value": 82.2, "unit": "%"}, {"measurement": "viability, T/C", "setting": "second compound 0.316 µM, first compound 0.0316 µM", "value": 95.9, "unit": "%"}, {"measurement": "viability, T/C", "setting": "second compound 0.316 µM, first compound 0.1 µM", "value": 70.1, "unit": "%"}, {"measurement": "viability, T/C", "setting": "second compound 0.316 µM, first compound 0.316 µM", "value": 67.8, "unit": "%"}, {"measurement": "viability, T/C", "setting": "second compound 0.316 µM, first compound 1 µM", "value": 39, "unit": "%"}, {"measurement": "viability, T/C", "setting": "second compound 1 µM, first compound 0.00316 µM", "value": 106, "unit": "%"}, {"measurement": "viability, T/C", "setting": "second compound 1 µM, first compound 0.01 µM", "value": 72.8, "unit": "%"}, {"measurement": "viability, T/C", "setting": "second compound 1 µM, first compound 0.0316 µM", "value": 78.7, "unit": "%"}, {"measurement": "viability, T/C", "setting": "second compound 1 µM, first compound 0.1 µM", "value": 73.9, "unit": "%"}, {"measurement": "viability, T/C", "setting": "second compound 1 µM, first compound 0.316 µM", "value": 64, "unit": "%"}, {"measurement": "viability, T/C", "setting": "second compound 1 µM, first compound 1 µM", "value": 42.1, "unit": "%"}]}]}
